Reference: publication PMC12508156, “Non-canonical dihydrolipoyl transacetylase promotes chemotherapy resistance via mitochondrial tetrahydrofolate signaling” (Nature Communications, 2025)
Residues, ends and D or L forms follow the SMILES beside them.

Columns and labels:
[1] = HPLC-based in vitro serum stability assay; type: in vitro ADME; settings: 0.2 mg DMp39 incubated for indicated times with pre-warmed 50% serum, remaining peptide by heights of elution peaks, optimal dose of 20 μM
Procedure: Fig. 8 Decoy peptide DMp39 targets DLAT-mediated MTHFD2 acetylation and increases tumor chemosensitivity in vitro and in vivo. a The structure of MTHFD2. K44 containing α-helix in MTHFD2, is marked in purple. The amino acid sequence of DMp39 is shown at the top. b HPLC-based in vitro serum stability assay of DMp39. DMp39 (0.2 mg) was incubated for indicated times with pre-warmed 50% serum and applied to HPLC. […] Liver, kidney, and spleen toxicity were assessed by serum alanine aminotransferase, cystatin C, and spleen index (spleen weight (mg)/body weight (g) x 10), respectively. g Efficacy test of Cy7-DMp39 in vivo. […] MTHFD2 and Ac-K44 MTHFD2 levels in tumors were assessed by co-immunoprecipitation of MTHFD2. […] Representative images of the tumors at the endpoint are presented in (h) and (k). Ac-K44 MTHFD2, MT-CO2, and DLAT levels in both xenograft mouse tumors were assessed by IHC staining (j, m). Scale bars in (h) and (k) represent 10 mm and 25 μm in (j) and (m). Results are presented as mean ± SEM for (h, k) and mean ± SD for the rest. n = 3 per group for (e, f), n = 6 for (g) left, n = 5 for (g) right, n = 6 for (h–j), and n = 5 for (k–m). P values were obtained by one-way ANOVA. Source data are provided as a Source Data file.

[2] = Organ toxicity in mice (serum ALT, cystatin C, spleen index); type: in vivo
Procedure: K44 containing α-helix in MTHFD2, is marked in purple. The amino acid sequence of DMp39 is shown at the top. b HPLC-based in vitro serum stability assay of DMp39. DMp39 (0.2 mg) was incubated for indicated times with pre-warmed 50% serum and applied to HPLC. […] Liver, kidney, and spleen toxicity were assessed by serum alanine aminotransferase, cystatin C, and spleen index (spleen weight (mg)/body weight (g) x 10), respectively. g Efficacy test of Cy7-DMp39 in vivo. […] MTHFD2 and Ac-K44 MTHFD2 levels in tumors were assessed by co-immunoprecipitation of MTHFD2. […] Representative images of the tumors at the endpoint are presented in (h) and (k). Ac-K44 MTHFD2, MT-CO2, and DLAT levels in both xenograft mouse tumors were assessed by IHC staining (j, m). […]
Mice were subcutaneously injected into the flank with 1 × 10^6 KB-3-1^cisR cells with or without DLAT knockdown. […] The tumor volume of KB-3-1^cisR or PDX tumors was monitored by blinded measurements of two perpendicular diameters and calculated using the formula 4π/3 x (width/2)^2 x (length/2). […] Tumors were collected at the experimental endpoint, and tumor proliferation was assessed using Ki-67 IHC staining. The localization, penetration, and efficacy of DMp39 were monitored by assessing the acetyl-K44 levels in tumors and fluorescence imaging analysis using an IVIS imaging system. […]

In the case of CC[C@H](C)[C@H](NC(=O)[C@H](CCC(N)=O)NC(=O)[C@H](CCC(N)=O)NC(=O)[C@H](C)NC(=O)[C@H](CC(C)C)NC(=O)[C@H](CCCCN)NC(=O)[C@H](CCCNC(=N)N)NC(=O)CNC(=O)[C@H](CO)NC(=O)[C@@H](NC(=O)[C@@H](N)C(C)C)[C@@H](C)CC)C(=O)N[C@@H](CCCCN)C(=O)N[C@@H](CCC(N)=O)C(=O)N[C@@H](CCC(=O)O)C(=O)N[C@H](C(=O)N[C@@H](CCCNC(=N)N)C(=O)N[C@@H](CCC(N)=O)C(=O)N[C@@H](CCC(=O)O)C(=O)N[C@H](C(=O)N[C@@H](CCC(=O)O)C(=O)N[C@@H](CCC(=O)O)C(=O)N[C@@H](Cc1c[nH]c2ccccc12)C(=O)N[C@H](C(=O)N[C@@H](C)C(=O)N[C@@H](CO)C(=O)NCC(=O)N[C@@H](CC(N)=O)C(=O)N[C@@H](CCCCN)C(=O)N[C@@H](Cc1ccc(O)cc1)C(=O)NCC(=O)N[C@@H](CCCNC(=N)N)C(=O)N[C@@H](CCCCN)C(=O)N[C@@H](CCCCN)C(=O)N[C@@H](CCCNC(=N)N)C(=O)N[C@@H](CCCNC(=N)N)C(=O)N[C@@H](CCC(N)=O)C(=O)N[C@@H](CCCNC(=N)N)C(=O)N[C@@H](CCCNC(=N)N)C(=O)N[C@@H](CCCNC(=N)N)C(=O)O)C(C)C)C(C)C)C(C)C [DMp39] (H-VISGRKLAQQIKQEVRQEVEEWVASGNKYGRKKRRQRRR-OH), the time-dependent serum stability [1] is reported as “stable”, the toxicity markers ([2]; mice, sublethal cisplatin (5 mg/kg, twice/week for 22 days) and/or DMp39) is reported as “remained at baseline levels” and the acute toxicity ([2]; short-term dosing in mice) is reported as “no acute toxicity”.
